Data on four molecules can be found in patent publication US20040162235A1, “Delivery of siRNA to cells using polyampholytes” (priority 2003, published 2004).

Where two headings read alike, the source gives them in different places. *1 amine or outer side, *2 acyl side, *3 side chain or, on linkers, in order; H or OH if unused. Where a SMILES comes first, the peptide text is derived from it. Where no end group is shown, it is not given here. The star is where a group is joined. Suc = O=C(CCC(=O)[*:2])[*:1]; X1 = C/C(C(=O)O)=C(\C)C(=O)*

A short description of data set [1]: Red blood cell (RBC) hemolysis assay. Type of data set: cell-based. Conditions: 37° C., read-out: Percent Hemolysis; for hemolysis at 30 min: red blood cells (washed, harvested from whole blood). The protocol:
C. […] RBCs were harvested by centrifuging whole blood for 4 min. They were washed three times with 100 mM dibasic sodium phosphate at the desired pH, and resuspended in the same buffer to yield the initial volume. They were diluted 10 times in the same buffer, and 200 μL of this suspension was used for each tube. This yields […] RBCs per tube. Each tube contained 800 μL of buffer, 200 μL of the RBC suspension, and the peptide with or without polymer. Each sample was then repeated to verify reproducibility. The tubes were incubated for 30 minutes in a 37° C. water bath. They were spun for 5 min at full speed in the microcentrifuge. Lysis was determined by measuring the absorbance of the supernatant at 541 nm, reflecting the amount of hemoglobin that had been released into the supernatant. Percent hemolysis was calculated assuming 100% lysis to be measured by the hemoglobin released by the red blood cells in water; controls of RBCs in buffer with no peptide were also run.

Data set [2] is described as follows: Lability at pH 5: conversion of maleamic acid to amine and anhydride, followed by TNBS. It is filed as physicochemical. To be noted: sodium acetate buffer pH 5. Here is the method: A. DM-poly-L-lysine: Dimethyl maleamic modified poly-L-lysine (10 mg/mL) was incubated in 10 mM sodium acetate buffer pH 5. At various times, aliquots (10 μg) were removed and added to 0.5 mL of 100 mM borax solution containing 0.4 mM trinitrobenzenesulfonate (TNBS). After 30 min, the absorbance of the solution at 420 nm was measured. To determine the concentration of amines at each time point, the extinction coefficient was determined for the product of TNBS and poly-L-lysine. Using this extinction coefficient we were able to calculate the amount of amines and maleamic groups at each time point. A plot of In (At/A0) as a function of time was a straight line whose slope was the negative of the rate constant for the conversion of maleamic acid to amine and anhydride, where At is the concentration of maleamic acid at a time t and A0 is the initial concentration of maleamic acid. For two separate experiments we calculated rate constants of […] which correspond to half lives of roughly 10 and 4 minutes, respectively.
B. DM-KL3: Dimethyl maleamic modified KL3 (0.1 mg/mL) was incubated in 40 mM sodium acetate buffer pH 5 and 1 mM cetyltrimetylammonium bromide. At various times, 10 μg aliquots were removed and added to 0.05 mL 1 M borax solution containing 4 mM TNBS. After 30 min, the absorbance of the solution at 420 nm was measured. […]

One may read the half-life as how long it takes for the measured level to halve. Read a low half-life as rapid decline. Regarding `C/C(C(=O)O)=C(\C)C(=O)NCCCC[C@H](NC(=O)/C(C)=C(/C)C(=O)O)C(=O)N[C@@H](CC(C)C)C(=O)N[C@@H](CC(C)C)C(=O)N[C@@H](CCCCNC(=O)/C(C)=C(/C)C(=O)O)C(=O)N[C@@H](CC(C)C)C(=O)N[C@@H](CC(C)C)C(=O)N[C@@H](CC(C)C)C(=O)N[C@@H](CCCCNC(=O)/C(C)=C(/C)C(=O)O)C(=O)N[C@@H](CC(C)C)C(=O)N[C@@H](Cc1c[nH]c2ccccc12)C(=O)N[C@@H](CC(C)C)C(=O)N[C@@H](CCCCNC(=O)/C(C)=C(/C)C(=O)O)C(=O)N[C@@H](CC(C)C)C(=O)N[C@@H](CC(C)C)C(=O)N[C@@H](CCCCNC(=O)/C(C)=C(/C)C(=O)O)C(=O)N[C@@H](CC(C)C)C(=O)N[C@@H](CC(C)C)C(=O)N[C@@H](CC(C)C)C(=O)N[C@@H](CCCCNC(=O)/C(C)=C(/C)C(=O)O)C(=O)N[C@@H](CC(C)C)C(=O)N[C@@H](CC(C)C)C(=O)O` [DM-KL3] (X1-K(X1)LLK(X1)LLLK(X1)LWLK(X1)LLK(X1)LLLK(X1)LL-OH; N-terminus and C-terminus assumed), the hemolysis in data set [1] (pH 5.4, 30 minutes) is 37%; in data set [1] (pH 7.5, 30 minutes), 4.3%. Moreover, in data set [2], the half-life was around 8 min. For the same molecule, the “rate constant for the conversion of maleamic acid to amine and anhydride” value in data set [2] was 0.087 min⁻¹.

For `CC[C@H](C)[C@H](NC(=O)CN)C(=O)NCC(=O)N[C@@H](C)C(=O)N[C@H](C(=O)N[C@@H](CC(C)C)C(=O)N[C@@H](CCCCN)C(=O)N[C@H](C(=O)N[C@@H](CC(C)C)C(=O)N[C@H](C(=O)N[C@H](C(=O)NCC(=O)N[C@@H](CC(C)C)C(=O)N1CCC[C@H]1C(=O)N[C@@H](C)C(=O)N[C@@H](CC(C)C)C(=O)N[C@H](C(=O)N[C@@H](CO)C(=O)N[C@@H](Cc1c[nH]c2ccccc12)C(=O)N[C@H](C(=O)N[C@@H](CCCCN)C(=O)N[C@@H](CCCNC(=N)N)C(=O)N[C@@H](CCCCN)C(=O)N[C@@H](CCCNC(=N)N)C(=O)N[C@@H](CCC(N)=O)C(=O)N[C@@H](CCC(N)=O)C(N)=O)[C@@H](C)CC)[C@@H](C)CC)[C@@H](C)O)[C@@H](C)O)C(C)C)C(C)C` [Melittin, reference compound], the hemolysis at 30 min in data set [1] (pH 5.4, 30 minutes) stood at 85%; in data set [1] (pH 7.5, 30 minutes), 92%.

With `CC(C)C[C@H](NC(=O)[C@H](CC(C)C)NC(=O)[C@H](CCCCNC(=O)CCC(=O)O)NC(=O)[C@H](CC(C)C)NC(=O)[C@H](CC(C)C)NC(=O)[C@H](CC(C)C)NC(=O)[C@H](CCCCNC(=O)CCC(=O)O)NC(=O)[C@H](CC(C)C)NC(=O)[C@H](CC(C)C)NC(=O)[C@H](CCCCNC(=O)CCC(=O)O)NC(=O)[C@H](CC(C)C)NC(=O)[C@H](Cc1c[nH]c2ccccc12)NC(=O)[C@H](CC(C)C)NC(=O)[C@H](CCCCNC(=O)CCC(=O)O)NC(=O)[C@H](CC(C)C)NC(=O)[C@H](CC(C)C)NC(=O)[C@H](CC(C)C)NC(=O)[C@H](CCCCNC(=O)CCC(=O)O)NC(=O)[C@H](CC(C)C)NC(=O)[C@H](CC(C)C)NC(=O)[C@H](CCCCNC(=O)CCC(=O)O)NC(=O)CCC(=O)O)C(=O)O` [Succinyl-KL3] (Suc-K(Suc)LLK(Suc)LLLK(Suc)LWLK(Suc)LLK(Suc)LLLK(Suc)LL-OH; N-terminus and C-terminus assumed), the hemolysis in data set [1] (pH 5.4, 30 minutes) was 2%; in data set [1] (pH 7.5, 30 minutes), 1.3%.

As for KLLKLLLKLWLKLLKLLLKLL [KL3], the hemolysis worked out at 83% in data set [1] (pH 5.4, 30 minutes) and 62% in data set [1] (pH 7.5, 30 minutes).
